Laboratory results: patent US20220340875A1, “METHODS OF CULTURING AND/OR EXPANDING STEM CELLS AND/OR LINEAGE COMMITTED PROGENITOR CELLS USING AMIDO COMPOUNDS” (IDEAYA BIOSCIENCES, INC., priority 2018, published 2022)

Target: T1, hAhR (Homo sapiens, UniProt P35869)
T1 construct: Stably integrated DRE-luciferase cell lines were generated by transducing the both cell lines with Cignal XRE luciferase reporter (Qiagen) lentiviral particles; endogenous in cells
T1 sequence (P35869 11-848): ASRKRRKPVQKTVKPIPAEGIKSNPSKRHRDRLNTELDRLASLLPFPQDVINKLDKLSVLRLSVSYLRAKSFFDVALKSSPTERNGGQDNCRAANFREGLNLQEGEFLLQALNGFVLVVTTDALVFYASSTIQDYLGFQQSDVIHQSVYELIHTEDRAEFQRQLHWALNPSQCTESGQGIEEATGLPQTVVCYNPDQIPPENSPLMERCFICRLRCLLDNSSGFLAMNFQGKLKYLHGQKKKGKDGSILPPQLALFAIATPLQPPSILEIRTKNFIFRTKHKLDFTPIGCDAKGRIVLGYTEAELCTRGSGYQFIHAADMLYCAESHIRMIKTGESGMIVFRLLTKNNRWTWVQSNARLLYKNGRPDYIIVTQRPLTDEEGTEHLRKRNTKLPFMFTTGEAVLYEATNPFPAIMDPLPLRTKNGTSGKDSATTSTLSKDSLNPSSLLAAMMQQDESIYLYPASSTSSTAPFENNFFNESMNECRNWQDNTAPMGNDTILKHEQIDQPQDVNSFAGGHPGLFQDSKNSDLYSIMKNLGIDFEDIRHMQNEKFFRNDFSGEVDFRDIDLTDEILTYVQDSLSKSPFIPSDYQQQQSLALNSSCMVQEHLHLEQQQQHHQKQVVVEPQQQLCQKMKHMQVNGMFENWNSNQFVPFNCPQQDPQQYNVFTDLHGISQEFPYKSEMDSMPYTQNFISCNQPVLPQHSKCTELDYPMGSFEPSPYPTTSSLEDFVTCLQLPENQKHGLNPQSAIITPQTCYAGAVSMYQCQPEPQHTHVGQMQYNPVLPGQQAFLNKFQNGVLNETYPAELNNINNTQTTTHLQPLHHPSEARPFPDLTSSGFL
Assay: AhR DRE-luciferase reporter transcriptional assay, antagonist mode (TCDD-induced)
Assay type: cell-based
Details: HEPG2 DRE-Luc cells, 3 nM TCDD, 24 hour incubation, relative IC50
Protocol: HEPG2 and HEPA1C1C7 cells were maintained in MEM and αMEM without nucleosides supplemented with 10% heat inactivated FBS respectively. Stably integrated DRE-luciferase cell lines were generated by transducing the both cell lines with Cignal XRE luciferase reporter (Qiagen) lentiviral particles according to the manufacturer protocol. For both cell lines stably integrated reporter cell lines were selected for the presence of 2 µg/mL puromycin. Following selection of stably integrated cell line pools, clonal cell lines were isolated by limiting dilution in 96-well plates. Transcriptional assays were performed by seeding 100 μL of cells at a density of 250,000 or 100,000 cells/mL, for HEPG2 and HEPA1C1C7 DRE-Luc cells respectively, into 96-well cell culture plates in OptiMEM supplemented with 0.5% heat inactivated FBS and allowed to attach overnight. For modulator assays, the compounds were added in a semi-log dose response using a D300e Digital Dispenser (Tecan) followed normalization with vehicle (DMSO). Immediately following compound addition 10 μL of 2,3,7,8-Tetrachlorodibenzo-p-dioxin (TCDD) was added to the cells to a final concentration of 3 nM or 0.3 nM for the HEPG2 and HEPA1C1C7 DRE-Luc cells respectively. Following 24 hour incubation the medium was removed and the cells were lysed in 25 μL of Reporter Lysis Buffer (Promega). Firefly luciferase activity was measured immediately following the addition of 50 μL Luciferase Assay Reagent (Promega). The percent maximal activity for each point was determined using the following equasion: (RLUsample-RLUvehicle−TCDD)/(RLUvehicle+TCDD RLUvehicle−TCDD)*100. The relative IC50, defined as the compound concentration required to reduce the TCDD induced response between the top and bottom plateau of each individual dose response curve by half, for each compound was determined using Prism 7 (GraphPad Software).

IC50, 200 to 500 nM:
Cc1cc(-c2ccc3cc(F)ccc3n2)ccc1NC(=O)c1nccn1C [Example 033, N-(4-(6-fluoroquinolin-2-yl)-2-methylphenyl)-1-methyl-1H-imidazole-2-carboxamide]
Cc1cc(-c2ccc3cc(Cl)ccc3n2)ccc1NC(=O)c1ccnn1C [Example 065, N-(4-(6-Chloroquinolin-2-yl)-2-methylphenyl)-1-methyl-1H-pyrazole-5-carboxamide]
CC(=O)Nc1ccc(-c2ccc3cc(F)ccc3n2)cc1C [Example 040, N-(4-(6-fluoroquinolin-2-yl)-2-methylphenyl)acetamide]
Cc1cc(-c2nc3ccc(C(F)(F)F)cc3s2)ccc1NC(=O)c1ccnn1C [Example 101, 1-methyl-N-(2-methyl-4-(6-(trifluoromethyl)benzo[d]thiazol-2-yl)phenyl)-1H-pyrazole-5-carboxamide]
Cc1cc(-c2ccc3cc(OC(F)(F)F)ccc3n2)ccc1N(C)C(=O)c1ccnn1C [Example 010, N,1-dimethyl-N-(2-methyl-4-(6-(trifluoromethoxy)quinolin-2-yl)phenyl)-1H-pyrazole-5-carboxamide]

IC50, 1000 to 10000 nM:
Cc1cc(-c2ccc3cnn(C)c3c2)ccc1NC(=O)c1ccnn1C [Example 090, 1-Methyl-N-(2-methyl-4-(1-methyl-1H-indazol-6-yl)phenyl)-1H-pyrazole-5-carboxamide]
Cc1cc(-c2ccc3ncn(C)c3c2)ccc1NC(=O)c1ccnn1C [Example 089, 1-Methyl-N-(2-methyl-4-(1-methyl-1H-benzo[d]imidazol-6-yl)phenyl)-1H-pyrazole-5-carboxamide]
Cn1nccc1C(=O)Nc1ccc(-c2ccc3cc(F)ccc3n2)cc1C(F)(F)F [Example 048, N-(4-(6-fluoroquinolin-2-yl)-2-(trifluoromethyl)phenyl)-1-methyl-1H-pyrazole-5-carboxamide]
Cc1cc(-c2ccc3c(ccn3CC(F)(F)F)c2)ccc1NC(=O)c1ccnn1C [Example 088, 1-methyl-N-(2-methyl-4-(1-(2,2,2-trifluoroethyl)-1H-indol-5-yl)phenyl)-1H-pyrazole-5-carboxamide]
Cc1c(-c2ccc3cc(C(F)(F)F)ccc3n2)ccc(N(C)C(=O)c2ccnn2C)c1F [Example 006, N-(2-fluoro-3-methyl-4-(6-(trifluoromethyl)quinolin-2-yl)phenyl)-N,1-dimethyl-1H-pyrazole-5-carboxamide]
Cc1cc(-c2ccc3cc(N)ccc3n2)ccc1NC(=O)c1ccnn1C [Example 075, N-(4-(6-aminoquinolin-2-yl)-2-methylphenyl)-1-methyl-1H-pyrazole-5-carboxamide]

IC50, 500 to 1000 nM:
Cc1cc(-c2ncc3cc(C(F)(F)F)ccc3n2)ccc1NC(=O)c1ncccc1C [Example 117, 3-methyl-N-(2-methyl-4-(6-(trifluoromethyl)quinazolin-2-yl)phenyl)picolinamide]
Cc1cc(-c2ncc3cc(C(F)(F)F)ccc3n2)ccc1N(C)C(=O)OC(C)(C)C [Example 009, tert-butyl methyl(2-methyl-4-(6-(trifluoromethyl)quinazolin-2-yl)phenyl)carbamate]
Cc1cc(-c2ccc3cc(F)ccc3n2)ccc1NC(=O)c1ccncc1 [Example 028, N-(4-(6-fluoroquinolin-2-yl)-2-methylphenyl)isonicotinamide]
Cc1cc(-c2ccc3ccccc3n2)ccc1NC(=O)c1ccnn1C [Example 070, 1-methyl-N-(2-methyl-4-(quinolin-2-yl)phenyl)-1H-pyrazole-5-carboxamide]
Cn1nccc1C(=O)Nc1ccc(-c2cnc3ccccc3n2)cc1 [Example 003, 1-methyl-N-(4-(quinoxalin-2-yl)phenyl)-1H-pyrazole-5-carboxamide]
Cc1cc(-c2ccc3cc(F)ccc3n2)ccc1NC(=O)c1cnoc1C [Example 038, N-(4-(6-fluoroquinolin-2-yl)-2-methylphenyl)-5-methylisoxazole-4-carboxamide]
Cc1cc(-c2ccc3cc(C(F)(F)F)ccc3n2)ccc1N(C)C(=O)c1ccn[nH]1 [Example 205, N-methyl-N-[2-methyl-4-[6-(trifluoromethyl)quinolin-2-yl]phenyl]-1H-pyrazole-5-carboxamide]

IC50, < 200 nM:
Cc1cc(C(=O)Nc2ccc(-c3ncc4nc(C(F)(F)F)cc(C)c4n3)cc2C)ccn1 [Example 149, 2-methyl-N-(2-methyl-4-(8-methyl-6-(trifluoromethyl)pyrido[3,2-d]pyrimidin-2-yl)phenyl)isonicotinamide]
Cc1cc(-c2ncc3cc(C(F)(F)F)ccc3n2)ccc1NC(=O)c1ccnn1C [Example 112, 1-methyl-N-(2-methyl-4-(6-(trifluoromethyl)quinazolin-2-yl)phenyl)-1H-pyrazole-5-carboxamide]
CN(C(=O)c1ccnn1C)c1ccc(-c2ncc3nc(C(F)(F)F)ccc3n2)cc1F [Example 138, N-(2-fluoro-4-(6-(trifluoromethyl)pyrido[3,2-d]pyrimidin-2-yl)phenyl)-N,1-dimethyl-1H-pyrazole-5-carboxamide]
Cc1cc(N(C)C(=O)c2ccnn2C)ccc1-c1ncc2nc(C(F)(F)F)ccc2n1 [Example 187, N,1-dimethyl-N-(3-methyl-4-(6-(trifluoromethyl)pyrido[3,2-d]pyrimidin-2-yl)phenyl)-1H-pyrazole-5-carboxamide]
COC(=O)N(C)c1ccc(-c2ncc3cc(C(F)(F)F)ccc3n2)cc1C [Example 128, methyl methyl(2-methyl-4-(6-(trifluoromethyl)quinazolin-2-yl)phenyl)carbamate]
Cc1cc(-c2ncc3ccc(C(F)(F)F)cc3n2)ccc1NC(=O)c1ccnn1C [Example 108, 1-methyl-N-(2-methyl-4-(7-(trifluoromethyl)quinazolin-2-yl)phenyl)-1H-pyrazole-5-carboxamide]
Cc1cc(-c2ccc3cc(C(F)(F)F)cc(C)c3n2)ccc1N(C)C(=O)c1ccnn1C [Example 202, N,1-dimethyl-N-(2-methyl-4-(8-methyl-6-(trifluoromethyl)quinolin-2-yl)phenyl)-1H-pyrazole-5-carboxamide]
Cc1cc(-c2ncc3cc(C(F)(F)F)ccc3n2)ccc1NC(=O)c1ccncc1C [Example 121, 3-methyl-N-(2-methyl-4-(6-(trifluoromethyl)quinazolin-2-yl)phenyl)isonicotinamide]
Cc1cc(-c2ncc3cc(F)ccc3n2)ccc1NC(=O)c1ccnn1C [Example 107, N-(4-(6-fluoroquinazolin-2-yl)-2-methylphenyl)-1-methyl-1H-pyrazole-5-carboxamide]
Cc1cc(-c2ccc3cccc(F)c3n2)ccc1NC(=O)c1ccnn1C [Example 018, N-(4-(8-fluoroquinolin-2-yl)-2-methylphenyl)-1-methyl-1H-pyrazole-5-carboxamide]
Cc1cc(-c2ncc3nc(C(F)(F)F)cc(C)c3n2)ccc1N(C)C(=O)c1cc(C(N)=O)nn1CCO [Example 200, 1-(2-hydroxyethyl)-N5-methyl-N5-(2-methyl-4-(8-methyl-6-(trifluoromethyl)pyrido[3,2-d]pyrimidin-2-yl)phenyl)-1H-pyrazole-3,5-dicarboxamide]
Cc1cc(-c2ncc3nc(C(F)(F)F)cc(C)c3n2)ccc1N(C)C(=O)c1ccnn1C [Example 148, N,1-Dimethyl-N-(2-methyl-4-(8-methyl-6-(trifluoromethyl)pyrido[3,2-d]pyrimidin-2-yl)phenyl)-1H-pyrazole-5-carboxamide]
